Results as given in patent US11155668B2, “Contact-killing, QAC functionalized thermoplastic polyurethane for catheter applications” (THE UNIVERSITY OF AKRON, priority 2017, dated 2021).
Entries after “also recorded” stand apart in the source; their conditions may differ.

What was measured:
E. coli [1] = assay: Contact-killing assay (adapted from ISO 22196) on allyl-TPU blade-coated samples modified with Qx-SH; type: cell-based, Escherichia coli (ATCC 25922); conditions: for log reduction in E. coli compared to the negative control / reduction in E. coli compared to the negative control: 24 h contact-killing assay; for Mean CFU/Sample Recovered, E. coli: n = 2, negative control polypropylene 2.04 (±0.06) × 10^6
Protocol: (§1) To functionalize the allyl-TPU blade-coated samples with Qx-SH reagents, thiol-ene reactions were performed using the same procedure described for rhodamine-SH. Briefly, blade-coated films of allyl-TPU (250 μm thick, 2.0 cm diameter, ca. 110 mg, 20 μmol allyl) were submerged in 2 mL of an Ar purged (30 min) aqueous solution containing Qx-SH (10.0 mM) and LAP (5.0 mM), and allowed to pre-soak for 30 min under Ar. UV-treated samples were irradiated for 30 min (λ=365 nm, I=1.2 mW·cm^−2) while phys. ads. samples were kept in the absence of UV light for 30 min to control for any antimicrobial activity that is contributed by non-covalently attached QAC. Following treatment, the dye/photoinitiator solutions were drawn up and discarded, and the samples were rinsed with 5 mL of DI water (3×) then submerged in 5 mL of DI water. The samples were further rinsed with 10% EtOH (3×) and soaked in 10% EtOH for 15 min (3×), rinsing with 10% EtOH in between each soak.
(§2) For antimicrobial testing, blade-coated samples and catheter tubing of allyl-TPU were sterilized by EtO sterilization using an Anprolene benchtop sterilizer (Anderson Products, Inc., Haw River, N.C.) following the manufacturer's protocol to deliver approximately 0.5 cc·L^−1 of EtO gas over a 12 h sterilization cycle at 35% humidity and room temperature, followed by a 48 h purge under vacuum. The bacterial strains used in this study included Staphylococcus epidermidis (ATCC 12228), Staphylococcus aureus (25923), Escherichia coli (ATCC 25922), Pseudomonas aeruginosa (ATCC 27853), Enterococcus faecalis (ATCC 29212), and methicillin-resistant Staphylococcus aureus (MRSA) (ATCC BAA-41).
The contact-killing assay was performed on physically adsorbed (phys. ads.), and UV-treated blade-coated samples modified with a series of Qx-SH reagents using a method adapted from ISO 22196. See, International Organization for Standardization. Measurement of antibacterial activity on plastics and other non porous surfaces (ISO 22196:2011), the disclosure of which is incorporated herein by reference in its entirety. Briefly, the samples were inoculated with same day cultures of select bacteria (e.g. E. coli, S. epidermidis) in dilute nutrient media (0.2% tryptic soy broth (TSB) in 1× phosphate buffered saline (PBS)) at approximately 150 colony-forming units (CFU)·mm^−2. Generally, 35 uL of 8.5×10^5 CFU/mL cultures were dispersed across the surface of the sample using sterile polypropylene cover films (area=198 mm^2). […] Following incubation, surviving cells were recovered from the samples using vigorous agitation (i.e. vortexing for 20 s in PBS). Surviving cells were enumerated via 10-fold series dilution and plating 100 μL onto tryptic soy agar (TSA), incubating overnight and then plate counting CFU. The mean CFU recovered per sample (CFU/sample) were calculated by accounting for dilutions. Internal controls samples of polypropylene and chlorhexidine treated with polypropylene were included in the assay.

MRSA = assay: as above; type: cell-based; conditions: n = 1, negative control polypropylene 1.51 × 10^5
Protocol: as §1, §2
The contact-killing assay was performed on physically adsorbed (phys. ads.), and UV-treated blade-coated samples modified with a series of Qx-SH reagents using a method adapted from ISO 22196. See, International Organization for Standardization. Measurement of antibacterial activity on plastics and other non porous surfaces (ISO 22196:2011), the disclosure of which is incorporated herein by reference in its entirety. Briefly, the samples were inoculated with same day cultures of select bacteria (e.g. E. coli, S. epidermidis) in dilute nutrient media (0.2% tryptic soy broth (TSB) in 1× phosphate buffered saline (PBS)) at approximately 150 colony-forming units (CFU)·mm^−2. Generally, 35 uL of 8.5×10^5 CFU/mL cultures were dispersed across the surface of the sample using sterile polypropylene cover films (area=198 mm^2). Inoculated samples were incubated in a humidified room air incubator (36° C., ca. 80% rel. humidity) for 20 h. Following incubation, surviving cells were recovered from the samples using vigorous agitation (i.e. vortexing for 20 s in PBS). Surviving cells were enumerated via 10-fold series dilution and plating 100 μL onto tryptic soy agar (TSA), incubating overnight and then plate counting CFU. The mean CFU recovered per sample (CFU/sample) were calculated by accounting for dilutions. Internal controls samples of polypropylene and chlorhexidine treated with polypropylene were included in the assay.

E. coli [2] = assay: Live/dead fluorescence assay on blade-coated samples modified with Q8-SH; type: cell-based, Escherichia coli (ATCC 25922); conditions: for E. coli killed: at 10 min
Protocol: as §2
A live/dead assay was performed using overnight cultures of E. coli grown in TSB and S. aureus grown in Mueller-Hinton broth (MH). The cells were washed with PBS (3×), resuspended in PBS, and diluted to obtain an OD600=0.15 (measured using a Hach DR2800 Spectrophotometer, λ=600 nm). The bacterial suspensions (1.0 mL) were stained with 2.0 μL of a dye mixture containing equal portions of 3.34 mM SYTO 9 and 20 mM propidium iodide (L7012 LIVE/DEAD™ BACLIGHT™ Bacterial Viability Kit, ThermoFisher Scientific) and allowed to incubate at room temperature in the dark for 15 min. Then, 10 μL of stained bacterial suspension was placed on a glass slide and covered with either untreated, phys. ads., or UV-treated samples modified with Q8-SH for 5 min (S. aureus) or 10 min (E. coli) before imaging. Live/dead microscopy was performed using an IX81 inverted microscope (Olympus, Center Valley, Pa.) and images were processed and quantified using ImageJ software.

NIH/3T3 fibroblast cells = assay: Cell viability assay (LIVE/DEAD staining) on coated coverslips; type: cell-based; conditions: for cell viability relative to glass: 24 h
Protocol: NIH/3T3 fibroblast cells (ATCC CRL-1658) were used to assess cell viability (passage 9) on the allyl-TPU films. The 8% allyl-TPU was spin-coated on blank glass coverslips (1 wt. % in chloroform) and samples were annealed at 60° C. for 1 h, then kept under vacuum for 24 h. The coated coverslips were then treated and rinsed as previously described to produce a control, phys. ads., and UV-treated sample modified with Q8-SH. Samples were sterilized by short-wave UV sterilization for 30 minutes. Cells were seeded at a cell density of 194,000 cells/cm^2 and cultured for 24 hours in a 37° C. incubator. Samples were then removed and stained with a LIVE/DEAD™ Viability/Cytotoxicity Kit (ThermoFisher Scientific L3224). Slides were analyzed with a Keyence BZ-X700 microscope at 20× magnification. Pictograms were analyzed with ImageJ software for cell viability counting (n=5). All groups were compared to the glass slide control.

CCCCCCCC[N+](C)(C)CCCCCCCCOC(=O)CCS.[Cl-] [Q8-SH]
log reduction in E. coli compared to the negative control (E. coli [1]; UV-treated samples): 6 log | reduction in E. coli compared to the negative control (E. coli [1]; UV-treated samples): 99.9999% | Mean CFU/Sample Recovered, E. coli (E. coli [1]; UV-treated samples): 0.00 ± 0.00 CFU/Sample | log reduction in E. coli compared to the negative control (E. coli [1]; phys. ads. samples): 6 log | reduction in E. coli compared to the negative control (E. coli [1]; phys. ads. samples): 99.9999% | Mean CFU/Sample Recovered, E. coli (E. coli [1]; phys. ads. samples): 0.00 ± 0.00 CFU/Sample | Mean CFU/Sample Recovered, MRSA (MRSA; UV-treated samples): 0.00 CFU/Sample | Mean CFU/Sample Recovered, MRSA (MRSA; phys. ads. samples): 0.00 CFU/Sample | E. coli killed (E. coli [2]; UV-treated samples): 90% | E. coli inoculum killed (in words) (E. coli [2]; UV-treated samples, within 10 min, OD600=0.15): nearly all; also recorded: majority | E. coli killed (E. coli [2]; phys. ads. samples): 5% | cell viability relative to glass (NIH/3T3 fibroblast cells; UV-treated samples): > 90% | cytotoxicity towards mammalian cells (in words) (NIH/3T3 fibroblast cells; control, phys. ads. and UV-treated samples compared to a glass slide control, FIG. 68): non-cytotoxic | cell viability relative to glass (NIH/3T3 fibroblast cells; phys. ads. samples): > 90%
